Test system: C57BL/6J inbred strain female mice
Assay: Survival after 8 Gy whole body γ-irradiation, intraperitoneal dosing 4 hours before or after (Example 4)
Assay type: in vivo
Conditions: 10 mg/kg 4 hr before Radiation 8 Gy
Description: β-lapachone is prepared at 10 mg/ml in 40% hydroxypropyl-beta-cyclodextrin (HPBCD).
C57BL/6J inbred strain female mice (4-5 weeks old) are used. Animals are maintained in a climate-controlled animal facility.
Animals are injected with different concentrations of β-lapachone (20 and 40 mg/kg body weight) intraperitoneally 4 hours before or after irradiation.
Whole body irradiation of animals with 8 Gy of γ-rays is carried out in air at room temperature in a gamma chamber (Gammacell 40 Exactor), at a dose-rate of 1.05 Gy/min. This radiation dose is within the range of equivalent human exposures predicted in many scenarios of radiologic or nuclear terrorist attack.
Mice are divided into the following groups (each Group comprises four mice receiving identical treatment):
Group II: Mice are injected with β-lapachone 20 mg/kg body weight 4 hours before radiation.
Group III: Mice are injected with β-lapachone 40 mg/kg body weight 4 hours before radiation.
Group IV: Mice are injected with β-lapachone 20 mg/kg body weight 4 hours after radiation.
Group V: Mice are injected with β-lapachone 40 mg/kg body weight 4 hours after radiation.
Group VI: Mice are injected with amifostine 10 mg/kg body weight 4 hours before radiation.
Animals are irradiated with 8 Gy at 1.05 Gy/min dose-rate. After irradiation mice are returned to their cage and observed on a regular basis. Exposure to γ-rays causes lethality in animals. Importantly, treatment with β-lapachone, especially at a level of 40 mg/kg prior to irradiation, diminishes the death rate.

`NCCCNCCSP(=O)(O)O` [Amifostine, reference compound] was tested, and the “Median survival time” value was 12 days, the “No. of animals surviving at 20 days post-irradiation” value (4 animals) was 0 and the “Death rate (%)” value (20 days) was 100%. For the same compound, the “Median survival time in days” value (listed as amifostine) was “little or no effect”.

Reference: US7649013B2, “Methods of protecting against radiation injury” (priority 2003, dated 2010)
